Assay [1] deals with Ribosomal protein S6 kinase alpha-4 (Homo sapiens, UniProt O75676).
The target in assay [2] is RAC-gamma serine/threonine-protein kinase (Homo sapiens, UniProt Q9Y243).
The target of assay [3] is Mitogen-activated protein kinase kinase kinase kinase 5 (Homo sapiens, UniProt Q9Y4K4).
Assay [4] has as its target Mitogen-activated protein kinase kinase kinase 9 (Homo sapiens, UniProt P80192).
Assay [5] has as its target T1, Ankyrin repeat and protein kinase domain-containing protein 1 (Homo sapiens, UniProt Q8NFD2).
T1 sequence (Q8NFD2 whole entry): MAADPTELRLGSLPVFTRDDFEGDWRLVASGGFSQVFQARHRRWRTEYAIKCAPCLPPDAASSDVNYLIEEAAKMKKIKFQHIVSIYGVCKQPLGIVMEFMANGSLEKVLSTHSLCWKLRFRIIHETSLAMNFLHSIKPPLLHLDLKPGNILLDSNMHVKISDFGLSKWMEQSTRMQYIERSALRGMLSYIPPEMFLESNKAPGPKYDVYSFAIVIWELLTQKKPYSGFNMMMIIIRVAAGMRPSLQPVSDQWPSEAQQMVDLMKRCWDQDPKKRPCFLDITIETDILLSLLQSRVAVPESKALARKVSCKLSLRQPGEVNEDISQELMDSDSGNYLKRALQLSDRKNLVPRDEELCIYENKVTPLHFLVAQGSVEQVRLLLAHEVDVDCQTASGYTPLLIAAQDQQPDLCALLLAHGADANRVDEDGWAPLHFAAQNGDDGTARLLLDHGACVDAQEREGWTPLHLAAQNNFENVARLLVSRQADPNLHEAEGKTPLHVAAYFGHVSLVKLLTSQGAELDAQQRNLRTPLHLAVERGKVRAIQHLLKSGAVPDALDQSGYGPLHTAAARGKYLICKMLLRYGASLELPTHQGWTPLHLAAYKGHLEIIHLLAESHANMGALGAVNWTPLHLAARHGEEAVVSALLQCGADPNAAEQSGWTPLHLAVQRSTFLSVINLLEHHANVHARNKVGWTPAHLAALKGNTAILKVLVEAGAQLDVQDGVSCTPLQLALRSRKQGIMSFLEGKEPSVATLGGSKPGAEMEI

The next assay has as its target T2, Ephrin type-A receptor 8 (Homo sapiens, UniProt P29322).
T2 sequence (P29322 whole entry): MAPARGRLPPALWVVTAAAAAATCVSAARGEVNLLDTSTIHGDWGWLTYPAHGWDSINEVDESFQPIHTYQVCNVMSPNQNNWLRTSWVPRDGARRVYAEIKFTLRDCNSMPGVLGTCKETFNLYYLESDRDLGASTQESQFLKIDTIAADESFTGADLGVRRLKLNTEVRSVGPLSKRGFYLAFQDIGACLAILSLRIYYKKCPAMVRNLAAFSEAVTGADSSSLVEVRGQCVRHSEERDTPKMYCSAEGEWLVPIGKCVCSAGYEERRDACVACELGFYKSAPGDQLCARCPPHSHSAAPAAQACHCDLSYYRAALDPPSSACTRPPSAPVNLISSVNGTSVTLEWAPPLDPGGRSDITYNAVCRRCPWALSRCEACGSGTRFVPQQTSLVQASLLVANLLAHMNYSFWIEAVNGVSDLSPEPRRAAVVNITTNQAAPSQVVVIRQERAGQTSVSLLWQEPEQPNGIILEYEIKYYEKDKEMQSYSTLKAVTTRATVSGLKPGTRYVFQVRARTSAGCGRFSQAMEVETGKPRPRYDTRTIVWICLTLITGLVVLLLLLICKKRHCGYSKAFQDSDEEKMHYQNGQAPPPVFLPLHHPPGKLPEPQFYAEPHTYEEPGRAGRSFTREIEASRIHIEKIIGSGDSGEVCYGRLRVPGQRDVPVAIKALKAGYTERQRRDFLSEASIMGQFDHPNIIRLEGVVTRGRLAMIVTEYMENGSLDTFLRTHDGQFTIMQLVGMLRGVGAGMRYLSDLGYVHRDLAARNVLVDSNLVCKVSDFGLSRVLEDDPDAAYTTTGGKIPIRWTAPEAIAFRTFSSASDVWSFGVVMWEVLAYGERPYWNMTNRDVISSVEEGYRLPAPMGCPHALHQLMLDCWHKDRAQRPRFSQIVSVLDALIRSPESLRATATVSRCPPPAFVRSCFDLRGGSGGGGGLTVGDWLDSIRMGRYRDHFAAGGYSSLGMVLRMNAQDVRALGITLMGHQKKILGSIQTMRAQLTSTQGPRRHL

For another assay, the target named is Ephrin type-A receptor 2 (Homo sapiens, UniProt P29317).
In assay [6] the target is T3, Serine/threonine-protein kinase 17B (Homo sapiens, UniProt O94768).
T3 sequence (O94768 whole entry): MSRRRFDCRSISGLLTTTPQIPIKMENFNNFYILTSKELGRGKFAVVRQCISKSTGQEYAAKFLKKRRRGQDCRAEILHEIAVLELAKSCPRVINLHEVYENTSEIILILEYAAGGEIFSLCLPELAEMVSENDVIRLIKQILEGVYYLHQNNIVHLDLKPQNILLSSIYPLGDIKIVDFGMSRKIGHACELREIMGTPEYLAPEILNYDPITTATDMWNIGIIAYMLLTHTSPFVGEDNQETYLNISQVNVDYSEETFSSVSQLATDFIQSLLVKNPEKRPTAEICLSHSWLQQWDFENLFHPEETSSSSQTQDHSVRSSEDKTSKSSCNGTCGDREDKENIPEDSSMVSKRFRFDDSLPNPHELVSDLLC

In assay [7] the target is High affinity nerve growth factor receptor (Homo sapiens, UniProt P04629).
Assay [8] has as its target Epithelial discoidin domain-containing receptor 1 (Homo sapiens, UniProt Q08345).

As a reminder, the Kd is the free concentration of one partner at which half of the binding sites on the other are occupied at equilibrium, for simple one-to-one binding. Low readings indicate tighter binding, high ones weaker binding. As to `Oc1ccc(-c2nc(-c3ccncc3)c(-c3ccc(F)cc3)[nH]2)cc1` [SB-202190], the Kd (in [1]; in assay [2]; in assay [3]; in assay [4]; in [5]; at Ephrin type-A receptor 8) was above 10 µM in each case. The Kd (on Ephrin type-A receptor 2; in assay [6]; in [7]) was above 10 µM each time.

As to `COCC(=O)NC/C=C/c1ccc2ncnc(Nc3ccc(Oc4ccc(C)nc4)c(C)c3)c2c1` [CP-724714], the Kd in assay [8], in assay [1], in [2], in assay [3], in assay [4] and in [5] was above 10 µM in each case. For the same compound, the Kd (on Ephrin type-A receptor 8; at Ephrin type-A receptor 2; in [6]; in assay [7]) was above 10 µM in each case.

Turning to `Nc1nc(Nc2ccc(S(N)(=O)=O)cc2)nn1C(=O)c1c(F)cccc1F` [JNJ-7706621], the equilibrium dissociation constant (Kd) was above 10 µM in [8]; 3 µM in assay [1]; above 10 µM in assay [2]; 3.6 µM in [4]; above 10 µM at Ephrin type-A receptor 8; above 10 µM at Ephrin type-A receptor 2. In addition, in [6], the Kd is above 10 µM.

`NC(=O)c1ccc(-c2nc(-c3ccc4c(c3)OCO4)c(-c3ccccn3)[nH]2)cc1` [SB-431542]: the Kd in assay [8], in assay [1], in assay [2], in assay [3], in assay [4] and in assay [5] was above 10 µM throughout. Moreover, the Kd (at Ephrin type-A receptor 8; on Ephrin type-A receptor 2; in assay [6]; in assay [7]) was above 10 µM throughout.

In the case of `CCOc1cc2ncc(C#N)c(Nc3ccc(F)c(Cl)c3)c2cc1NC(=O)/C=C/CN(C)C` [PELITINIB], the equilibrium dissociation constant (Kd) in assay [8] is above 10 µM; in assay [1], above 10 µM; in [2], above 10 µM; in assay [3] it was 0.01 µM; in assay [4], above 10 µM; in assay [5], above 10 µM. In addition, the Kd (on Ephrin type-A receptor 2; in [7]) was above 10 µM each time.

These data come from ChEMBL document CHEMBL1150977, “A quantitative analysis of kinase inhibitor selectivity” (Nat Biotechnol, 2008).
